# Test results published in ChEMBL document CHEMBL4813981, “Synthesis and in vitro antibacterial activity of new aminothiazole-oximepiperidone cephalosporins” (2021).
# Tests used:
# Assay type in all cases: functional
# Klebsiella pneumoniae [1] = test: Antibacterial activity against Carbapenem- resistant Klebsiella pneumoniae KR 15-5 assessed as reduction in bacterial growth
# Klebsiella pneumoniae [2] = test: Antibacterial activity against Carbapenem- resistant Klebsiella pneumoniae KR 15-6 assessed as reduction in bacterial growth
# Klebsiella pneumoniae [3] = test: Antibacterial activity against Carbapenem- resistant Klebsiella pneumoniae KR 15-11 assessed as reduction in bacterial growth
# Klebsiella pneumoniae [4] = test: Antibacterial activity against Carbapenem- sensitive Klebsiella pneumoniae 17-7 overexpressing extended spectrum beta-lactamases assessed as reduction in bacterial growth
# Acinetobacter baumannii [5] = test: Antibacterial activity against Carbapenem- resistant Acinetobacter baumannii 17-10 assessed as reduction in bacterial growth
# Acinetobacter baumannii [6] = test: Antibacterial activity against Carbapenem- resistant Acinetobacter baumannii 17-9 assessed as reduction in bacterial growth
# Klebsiella pneumoniae [7] = test: Antibacterial activity against Carbapenem- sensitive Klebsiella pneumoniae 17-4 overexpressing extended spectrum beta-lactamases assessed as reduction in bacterial growth
# Escherichia coli [8] = test: Antibacterial activity against ESBLs negative Carbapenem-sensitive Escherichia coli 17-16 assessed as reduction in bacterial growth
# Enterobacter cloacae [9] = test: Antibacterial activity against Enterobacter cloacae 17-2 assessed as reduction in bacterial growth
# Escherichia coli [10] = test: Antibacterial activity against ESBLs positive Carbapenem-sensitive Escherichia coli 17-11 assessed as reduction in bacterial growth
# Klebsiella pneumoniae [11] = test: Antibacterial activity against ESBLs negative Carbapenem-sensitive Klebsiella pneumoniae 17-20 assessed as reduction in bacterial growth
# Acinetobacter baumannii [12] = test: Antibacterial activity against Carbapenem- resistant Acinetobacter baumannii 17-2 assessed as reduction in bacterial growth
# Enterobacter cloacae [13] = test: Antibacterial activity against Enterobacter cloacae 17-4 assessed as reduction in bacterial growth
# Escherichia coli [14] = test: Antibacterial activity against ESBLs positive Carbapenem-sensitive Escherichia coli 17-21 assessed as reduction in bacterial growth
# Klebsiella aerogenes [15] = test: Antibacterial activity against Enterobacter aerogenes 17-2 assessed as reduction in bacterial growth
# Escherichia coli [16] = test: Antibacterial activity against ESBLs positive Carbapenem-sensitive Escherichia coli 17-8 assessed as reduction in bacterial growth
# Klebsiella aerogenes [17] = test: Antibacterial activity against Enterobacter aerogenes 15-3 assessed as reduction in bacterial growth
# Klebsiella aerogenes [18] = test: Antibacterial activity against Enterobacter aerogenes 15-5 assessed as reduction in bacterial growth
# Enterobacter cloacae [19] = test: Antibacterial activity against Enterobacter cloacae 17-8 assessed as reduction in bacterial growth
# Klebsiella pneumoniae [20] = test: Antibacterial activity against ESBLs negative Carbapenem-sensitive Klebsiella pneumoniae 17-16 assessed as reduction in bacterial growth
# Enterobacter cloacae [21] = test: Antibacterial activity against Enterobacter cloacae 17-10 assessed as reduction in bacterial growth
# Escherichia coli [22] = test: Antibacterial activity against ESBLs positive Carbapenem-sensitive Escherichia coli 17-3 assessed as reduction in bacterial growth
# Klebsiella pneumoniae [23] = test: Antibacterial activity against Carbapenem- resistant Klebsiella pneumoniae KR 15-10 assessed as reduction in bacterial growth
# Acinetobacter baumannii [24] = test: Antibacterial activity against Acinetobacter baumannii NCTC 13304 assessed as reduction in bacterial growth
# Escherichia coli [25] = test: Antibacterial activity against ESBLs positive Carbapenem-sensitive Escherichia coli 17-10 assessed as reduction in bacterial growth
# Pseudomonas aeruginosa [26] = test: Antibacterial activity against Carbapenem- resistant Pseudomonas aeruginosa 17-8 assessed as reduction in bacterial growth
# Klebsiella aerogenes [27] = test: Antibacterial activity against Enterobacter aerogenes 17-5 assessed as reduction in bacterial growth
# Klebsiella pneumoniae [28] = test: Antibacterial activity against Carbapenem- sensitive Klebsiella pneumoniae 17-3 overexpressing extended spectrum beta-lactamases assessed as reduction in bacterial growth
# Klebsiella aerogenes [29] = test: Antibacterial activity against Enterobacter aerogenes 15-7 assessed as reduction in bacterial growth
# Klebsiella pneumoniae [30] = test: Antibacterial activity against Carbapenem- sensitive Klebsiella pneumoniae 17-12 overexpressing extended spectrum beta-lactamases assessed as reduction in bacterial growth
# Klebsiella pneumoniae [31] = test: Antibacterial activity against Carbapenem- resistant Klebsiella pneumoniae KR 15-9 assessed as reduction in bacterial growth
# Pseudomonas aeruginosa [32] = test: Antibacterial activity against Carbapenem- resistant Pseudomonas aeruginosa 17-5 assessed as reduction in bacterial growth
# Acinetobacter baumannii [33] = test: Antibacterial activity against Carbapenem- resistant Acinetobacter baumannii 17-13 assessed as reduction in bacterial growth
# Pseudomonas aeruginosa [34] = test: Antibacterial activity against Carbapenem- resistant Pseudomonas aeruginosa 17-1 assessed as reduction in bacterial growth
# Klebsiella pneumoniae [35] = test: Antibacterial activity against Carbapenem- sensitive Klebsiella pneumoniae 17-13 overexpressing extended spectrum beta-lactamases assessed as reduction in bacterial growth
# Escherichia coli [36] = test: Antibacterial activity against ESBLs positive Carbapenem-sensitive Escherichia coli 17-14 assessed as reduction in bacterial growth
# Klebsiella pneumoniae [37] = test: Antibacterial activity against Carbapenem- sensitive Klebsiella pneumoniae 17-11 overexpressing extended spectrum beta-lactamases assessed as reduction in bacterial growth
# Acinetobacter baumannii [38] = test: Antibacterial activity against Carbapenem- resistant Acinetobacter baumannii 17-3 assessed as reduction in bacterial growth
# Escherichia coli [39] = test: Antibacterial activity against ESBLs positive Carbapenem-sensitive Escherichia coli 17-6 assessed as reduction in bacterial growth
# Escherichia coli [40] = test: Antibacterial activity against ESBLs positive Carbapenem-sensitive Escherichia coli 17-2 assessed as reduction in bacterial growth
# Acinetobacter baumannii [41] = test: Antibacterial activity against Carbapenem- resistant Acinetobacter baumannii 17-5 assessed as reduction in bacterial growth
# Escherichia coli [42] = test: Antibacterial activity against ESBLs negative Carbapenem-sensitive Escherichia coli 17-7 assessed as reduction in bacterial growth
# Escherichia coli [43] = test: Antibacterial activity against Escherichia coli ATCC 25922 assessed as reduction in bacterial growth
# Klebsiella pneumoniae [44] = test: Antibacterial activity against Carbapenem- resistant Klebsiella pneumoniae KR 15-13 assessed as reduction in bacterial growth
# Acinetobacter baumannii [45] = test: Antibacterial activity against Carbapenem- resistant Acinetobacter baumannii 17-8 assessed as reduction in bacterial growth
# Klebsiella pneumoniae [46] = test: Antibacterial activity against Carbapenem- sensitive Klebsiella pneumoniae 17-2 overexpressing extended spectrum beta-lactamases assessed as reduction in bacterial growth
# Klebsiella aerogenes [47] = test: Antibacterial activity against Enterobacter aerogenes 15-6 assessed as reduction in bacterial growth
# Pseudomonas aeruginosa [48] = test: Antibacterial activity against Carbapenem- sensitive Pseudomonas aeruginosa 17-22 assessed as reduction in bacterial growth
# Enterobacter cloacae [49] = test: Antibacterial activity against Enterobacter cloacae 17-9 assessed as reduction in bacterial growth
# Klebsiella pneumoniae [50] = test: Antibacterial activity against Carbapenem- sensitive Klebsiella pneumoniae 17-1 overexpressing extended spectrum beta-lactamases assessed as reduction in bacterial growth
# Klebsiella pneumoniae [51] = test: Antibacterial activity against ESBLs negative Carbapenem-sensitive Klebsiella pneumoniae 17-18 assessed as reduction in bacterial growth
# Klebsiella pneumoniae [52] = test: Antibacterial activity against Carbapenem- sensitive Klebsiella pneumoniae 17-8 overexpressing extended spectrum beta-lactamases assessed as reduction in bacterial growth
# Escherichia coli [53] = test: Antibacterial activity against ESBLs positive Carbapenem-sensitive Escherichia coli 17-17 assessed as reduction in bacterial growth
# Klebsiella pneumoniae [54] = test: Antibacterial activity against Carbapenem- resistant Klebsiella pneumoniae KR 15-12 assessed as reduction in bacterial growth
compound,measurement,setting,value
CC(C)(O/N=C(\C(=O)N[C@@H]1C(=O)N2C(C(=O)[O-])=C(C[n+]3ccccc3)CS[C@H]12)c1csc(N)n1)C(=O)O [CEFTAZIDIME],MIC,Klebsiella pneumoniae [1],> 64 µg/mL
same,MIC,Klebsiella pneumoniae [2],32 µg/mL
same,MIC,Klebsiella pneumoniae [3],> 64 µg/mL
same,MIC,Klebsiella pneumoniae [4],> 64 µg/mL
same,MIC,Acinetobacter baumannii [5],32 µg/mL
same,MIC,Acinetobacter baumannii [6],> 64 µg/mL
same,MIC,Klebsiella pneumoniae [7],> 64 µg/mL
same,MIC,Escherichia coli [8],0.5 µg/mL
same,MIC,Enterobacter cloacae [9],64 µg/mL
same,MIC,Escherichia coli [10],32 µg/mL
same,MIC,Klebsiella pneumoniae [11],0.125 µg/mL
same,MIC,Acinetobacter baumannii [12],> 64 µg/mL
same,MIC,Enterobacter cloacae [13],0.5 µg/mL
same,MIC,Escherichia coli [14],8 µg/mL
same,MIC,Klebsiella aerogenes [15],16 µg/mL
same,MIC,Escherichia coli [16],16 µg/mL
same,MIC,Klebsiella aerogenes [17],> 64 µg/mL
same,MIC,Klebsiella aerogenes [18],16 µg/mL
same,MIC,Enterobacter cloacae [19],0.125 µg/mL
same,MIC,Klebsiella pneumoniae [20],2 µg/mL
same,MIC,Enterobacter cloacae [21],1 µg/mL
same,MIC,Escherichia coli [22],2 µg/mL
same,MIC,Klebsiella pneumoniae [23],> 64 µg/mL
same,MIC,Acinetobacter baumannii [24],64 µg/mL
same,MIC,Escherichia coli [25],4 µg/mL
same,MIC,Pseudomonas aeruginosa [26],32 µg/mL
same,MIC,Klebsiella aerogenes [27],16 µg/mL
same,MIC,Klebsiella pneumoniae [28],> 64 µg/mL
same,MIC,Klebsiella aerogenes [29],16 µg/mL
same,MIC,Klebsiella pneumoniae [30],4 µg/mL
same,MIC,Klebsiella pneumoniae [31],64 µg/mL
same,MIC,Pseudomonas aeruginosa [32],64 µg/mL
same,MIC,Acinetobacter baumannii [33],> 64 µg/mL
same,MIC,Pseudomonas aeruginosa [34],32 µg/mL
same,MIC,Klebsiella pneumoniae [35],4 µg/mL
same,MIC,Escherichia coli [36],16 µg/mL
same,MIC,Klebsiella pneumoniae [37],8 µg/mL
same,MIC,Acinetobacter baumannii [38],> 64 µg/mL
same,MIC,Escherichia coli [39],32 µg/mL
same,MIC,Escherichia coli [40],2 µg/mL
same,MIC,Acinetobacter baumannii [41],> 64 µg/mL
same,MIC,Escherichia coli [42],0.125 µg/mL
same,MIC,Escherichia coli [43],0.06 µg/mL
same,MIC,Klebsiella pneumoniae [44],64 µg/mL
same,MIC,Acinetobacter baumannii [45],> 64 µg/mL
same,MIC,Klebsiella pneumoniae [46],2 µg/mL
same,MIC,Klebsiella aerogenes [47],8 µg/mL
same,MIC,Pseudomonas aeruginosa [48],0.5 µg/mL
same,MIC,Enterobacter cloacae [49],0.5 µg/mL
same,MIC,Klebsiella pneumoniae [50],64 µg/mL
same,MIC,Klebsiella pneumoniae [51],0.125 µg/mL
same,MIC,Klebsiella pneumoniae [52],> 64 µg/mL
same,MIC,Escherichia coli [53],32 µg/mL
same,MIC,Klebsiella pneumoniae [54],64 µg/mL
C[C@@H](O)[C@H]1C(=O)N2C(C(=O)O)=C(S[C@@H]3CN[C@H](C(=O)N(C)C)C3)[C@H](C)[C@H]12 [MEROPENEM],MIC,Klebsiella pneumoniae [1],> 64 µg/mL
same,MIC,Klebsiella pneumoniae [2],> 64 µg/mL
same,MIC,Klebsiella pneumoniae [3],32 µg/mL
same,MIC,Klebsiella pneumoniae [4],0.06 µg/mL
same,MIC,Acinetobacter baumannii [5],16 µg/mL
same,MIC,Acinetobacter baumannii [6],32 µg/mL
same,MIC,Klebsiella pneumoniae [7],0.06 µg/mL
same,MIC,Escherichia coli [8],< 0.03 µg/mL
same,MIC,Enterobacter cloacae [9],0.125 µg/mL
same,MIC,Escherichia coli [10],< 0.03 µg/mL
same,MIC,Klebsiella pneumoniae [11],< 0.03 µg/mL
same,MIC,Acinetobacter baumannii [12],64 µg/mL
same,MIC,Enterobacter cloacae [13],< 0.03 µg/mL
same,MIC,Escherichia coli [14],< 0.03 µg/mL
same,MIC,Klebsiella aerogenes [15],0.06 µg/mL
same,MIC,Escherichia coli [16],< 0.03 µg/mL
same,MIC,Klebsiella aerogenes [17],4 µg/mL
same,MIC,Klebsiella aerogenes [18],0.125 µg/mL
same,MIC,Enterobacter cloacae [19],< 0.03 µg/mL
same,MIC,Klebsiella pneumoniae [20],< 0.03 µg/mL
same,MIC,Enterobacter cloacae [21],< 0.03 µg/mL
same,MIC,Escherichia coli [22],< 0.03 µg/mL
same,MIC,Klebsiella pneumoniae [23],> 64 µg/mL
same,MIC,Acinetobacter baumannii [24],16 µg/mL
same,MIC,Escherichia coli [25],< 0.03 µg/mL
same,MIC,Pseudomonas aeruginosa [26],32 µg/mL
same,MIC,Klebsiella aerogenes [27],0.125 µg/mL
same,MIC,Klebsiella pneumoniae [28],< 0.03 µg/mL
same,MIC,Klebsiella aerogenes [29],0.125 µg/mL
same,MIC,Klebsiella pneumoniae [30],< 0.03 µg/mL
same,MIC,Klebsiella pneumoniae [31],> 64 µg/mL
same,MIC,Pseudomonas aeruginosa [32],32 µg/mL
same,MIC,Acinetobacter baumannii [33],64 µg/mL
same,MIC,Pseudomonas aeruginosa [34],16 µg/mL
same,MIC,Klebsiella pneumoniae [35],< 0.03 µg/mL
same,MIC,Escherichia coli [36],< 0.03 µg/mL
same,MIC,Klebsiella pneumoniae [37],0.06 µg/mL
same,MIC,Acinetobacter baumannii [38],16 µg/mL
same,MIC,Escherichia coli [39],< 0.03 µg/mL
same,MIC,Escherichia coli [40],< 0.03 µg/mL
same,MIC,Acinetobacter baumannii [41],64 µg/mL
same,MIC,Escherichia coli [42],< 0.03 µg/mL
same,MIC,Escherichia coli [43],< 0.03 µg/mL
same,MIC,Klebsiella pneumoniae [44],64 µg/mL
same,MIC,Acinetobacter baumannii [45],32 µg/mL
same,MIC,Klebsiella pneumoniae [46],< 0.03 µg/mL
same,MIC,Klebsiella aerogenes [47],0.06 µg/mL
same,MIC,Pseudomonas aeruginosa [48],1 µg/mL
same,MIC,Enterobacter cloacae [49],< 0.03 µg/mL
same,MIC,Klebsiella pneumoniae [50],0.06 µg/mL
same,MIC,Klebsiella pneumoniae [51],< 0.03 µg/mL
same,MIC,Klebsiella pneumoniae [52],0.125 µg/mL
same,MIC,Escherichia coli [53],< 0.03 µg/mL
same,MIC,Klebsiella pneumoniae [54],32 µg/mL
